Biological target: Poly [ADP-ribose] polymerase 1 (Homo sapiens, UniProt P09874)
Test: Enzyme Assay
Experimental: Inhibition of PARP-1 enzymatic activities was measured using an HT Universal Colorimetric PARP Assay Kit (Trevigen, catalogue #4677-096-K) following the standard procedures. Serial dilutions of PARP compounds were added to appropriate wells. The compound was incubated with PARP enzyme at RT for 10 min, and the reaction was initiated by addition of the PARP substrate cocktail, Each concentration of compound was tested in triplicate wells. After 15 min reaction, the reaction was stopped, and the Strep-HRP was added into each well and incubated for 1 h at RT. After addition of TACS-Sapphire colorimetric substrate and incubated in dark for 15 min, the OD450 was read out with an EnVision instrument. IC50 values (the concentration at which 50% of the enzyme activity is inhibited) were calculated, which are determined over a range of different concentrations, normally from 10 uM to 0.1 nM.

Poly [ADP-ribose] polymerase 1, sequence (P09874 whole entry): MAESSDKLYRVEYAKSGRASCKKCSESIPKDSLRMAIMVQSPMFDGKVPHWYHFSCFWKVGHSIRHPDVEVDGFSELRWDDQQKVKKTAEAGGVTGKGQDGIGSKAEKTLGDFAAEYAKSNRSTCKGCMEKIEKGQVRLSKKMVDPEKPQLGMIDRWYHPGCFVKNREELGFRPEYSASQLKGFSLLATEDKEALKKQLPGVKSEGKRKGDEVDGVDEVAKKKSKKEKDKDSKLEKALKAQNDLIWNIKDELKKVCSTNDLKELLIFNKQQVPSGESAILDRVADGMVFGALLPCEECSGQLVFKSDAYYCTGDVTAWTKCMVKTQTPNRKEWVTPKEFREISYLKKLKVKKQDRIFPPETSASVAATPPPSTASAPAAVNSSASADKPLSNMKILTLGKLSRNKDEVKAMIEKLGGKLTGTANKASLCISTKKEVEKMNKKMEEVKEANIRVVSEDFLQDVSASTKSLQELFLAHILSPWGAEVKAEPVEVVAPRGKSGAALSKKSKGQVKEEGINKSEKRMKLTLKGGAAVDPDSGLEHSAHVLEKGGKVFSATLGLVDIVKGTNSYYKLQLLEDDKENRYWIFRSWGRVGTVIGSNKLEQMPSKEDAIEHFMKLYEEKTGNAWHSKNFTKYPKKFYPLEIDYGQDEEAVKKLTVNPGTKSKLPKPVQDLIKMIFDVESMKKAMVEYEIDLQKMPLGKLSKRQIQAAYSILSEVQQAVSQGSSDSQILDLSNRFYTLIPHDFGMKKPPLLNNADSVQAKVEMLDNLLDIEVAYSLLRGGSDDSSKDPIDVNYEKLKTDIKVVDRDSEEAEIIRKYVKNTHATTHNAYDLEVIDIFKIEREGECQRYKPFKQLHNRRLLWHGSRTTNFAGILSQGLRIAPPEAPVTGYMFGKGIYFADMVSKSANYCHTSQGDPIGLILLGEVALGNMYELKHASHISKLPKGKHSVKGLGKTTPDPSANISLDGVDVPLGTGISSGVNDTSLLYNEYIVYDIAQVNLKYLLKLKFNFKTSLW

IC50: in the range around 550 nM
SMILES: CC(C)(C)C(=O)N1CCP(=O)(c2cc(Cc3n[nH]c(=O)c4ccccc34)ccc2F)CC1 [US11248013, Example 10]

Reference: BindingDB's records for patent US11248013 (Rakovina Therapeutics, 2022)
